Reference: US10849982B2, “C3-carbon linked glutarimide degronimers for target protein degradation” (C4 Therapeutics, Inc., priority 2016, dated 2020)

Experiments:
MOLT4.1 (WT) cell line = assay: Cell viability analysis (CellTiter-Glo 2.0), MOLT4.1; assay type: cell-based; conditions: MOLT4.1, 72 hr
Procedure: (§1) CellTiter-Glo® 2.0 Assay was purchased from Promega (Medison, Wis., USA). MOLT4.1 (WT) cell line was purchased from ATCC (Manassas, Va., USA) and MOLT4.2 (CRBN Knock Out) cell line was generated in house. Cell culture flasks and 384-well microplates were acquired from VWR (Radnor, Pa., USA).
(§2) MOLT4.1 and MOLT4.2 cell viability was determined based on quantification of ATP using CellTiter-Glo® 2.0 luminescent Assay kit, which signals the presence of metabolically-active cells. Briefly, MOLT4.1 and MOLT4.2 cells were seeded into 384-well plates at a cell density of 750 cells per well, the plates were kept at 37° C. with 5% CO2 overnight. On the following day, test compounds were added to the cells from a top concentration of 1 μM with 10 points, half log titration in duplicates. The cells treated in the absence of the test compound were the negative control and the cells treated in the absence of CellTiter-Glo® 2.0 were the positive control. At the same day of compound treatment, CellTiter-Glo® 2.0 was added to a plate with cells treated in the absence of the test compound to establish Cytostatic control value (Cro). Cells treated with the test compound were incubated for 72 hr. CellTiter-Glo reagent was then added to the cells and Luminescence was acquired on EnVision™ Multilabel Reader (PerkinElmer, Santa Clara, Calif., USA).
(§3) MOLT4.1 and MOLT4.2 cell viability was determined based on quantification of ATP using CellTiter-Glo® 2.0 luminescent Assay kit, which signals the presence of metabolically-active cells. Briefly, MOLT4.1 and MOLT4.2 cells were seeded into 384-well plates at a cell density of 750 cells per well, the plates were kept at 37° C. with 5% CO2 overnight. On the following day, test compounds were added to the cells from a top concentration of 1 μM with 10 points, half log titration in duplicates. […] CellTiter-Glo reagent was then added to the cells and Luminescence was acquired on EnVision™ Multilabel Reader (PerkinElmer, Santa Clara, Calif., USA).

BRD4 BD1 = BRD4 BD1 (Homo sapiens (Human), UniProt O60885); assay: HiBit assay, BRD4 BD1 degradation analysis; assay type: cell-based; conditions: BRD4_BD1, 293T.29 cells, 3 hr
Procedure: DMEM no-phenol red medium and fetal bovine serum (FBS) were purchased from Gibco (Grand Island, N.Y., USA). Nano-Glo® HiBiT Lytic Assay System was purchased from Promega (Medison, Wis., USA). 293T.29 (HiBiT-BRD4 BD1) cell line was generated in house, ectopically expressing BRD4 BD1 domain with HiBiT fusion tag. Cell culture flasks and 384-well microplates were acquired from VWR (Radnor, Pa., USA).
BRD4 BD1 degradation was determined based on quantification of luminescent signal using Nano-Glo® HiBiT Lytic Assay kit. Test compounds were added to the 384-well plate from a top concentration of 1 μM with 11 points, half log titration in quadruplicates. 293T.29 cells were added into 384-well plates at a cell density of 15000 cells per well. The plates were kept at 37° C. with 5% CO2 for 3 hours. The cells treated in the absence of the test compound were the negative control and the cells treated with 30 nM of a known BRD4 degrader were the positive control. After 3-hour incubation, Nano-Glo® HiBiT Lytic Assay reagents were added to the cells. Luminescence was acquired on EnVision™ Multilabel Reader (PerkinElmer, Santa Clara, Calif., USA).

[1] = system: MOLT4.2 (CRBN Knock Out) cell line; assay: Cell viability analysis (CellTiter-Glo 2.0), MOLT4.2; assay type: cell-based; conditions: MOLT4.2, 72 hr
Procedure: as §1, §2, §3

CRBN-DDB1 = CRBN-DDB1 (Homo sapiens (Human), UniProt Q96SW2); assay: CRBN-DDB1 fluorescence polarization (FP) binding assay; conditions: displacement of Thalidomide-Alexa Fluor or Pomalidomide-fluorescein probe; Table 2
Procedure: Measuring compound ligand binding to CRBN-DDB1 was carried out using an established sensitive and quantitative in vitro fluorescence polarization (FP) based binding assay. […] Compounds were dispensed from serially diluted DMSO stock into black 384-well compatible fluorescence polarization plates using an Echo acoustic dispenser. Compound binding to CRBN-DDB1 was measured by displacement of either a (−)-Thalidomide-Alexa Fluor® or Pomalidomide-fluorescein conjugated probe dye. […] Matching control wells excluding CRBN-DDB1 were used to correct for background fluorescence. Plates were read on an Envision plate reader with appropriate FP filter sets. The corrected S (perpendicular) and P (parallel) values were used to calculate fluorescence polarization (FP) with the following equation: FP=1000*(S−G*P)/(S+G*P).

CRBN-DDB1, sequence (Q96SW2 whole entry): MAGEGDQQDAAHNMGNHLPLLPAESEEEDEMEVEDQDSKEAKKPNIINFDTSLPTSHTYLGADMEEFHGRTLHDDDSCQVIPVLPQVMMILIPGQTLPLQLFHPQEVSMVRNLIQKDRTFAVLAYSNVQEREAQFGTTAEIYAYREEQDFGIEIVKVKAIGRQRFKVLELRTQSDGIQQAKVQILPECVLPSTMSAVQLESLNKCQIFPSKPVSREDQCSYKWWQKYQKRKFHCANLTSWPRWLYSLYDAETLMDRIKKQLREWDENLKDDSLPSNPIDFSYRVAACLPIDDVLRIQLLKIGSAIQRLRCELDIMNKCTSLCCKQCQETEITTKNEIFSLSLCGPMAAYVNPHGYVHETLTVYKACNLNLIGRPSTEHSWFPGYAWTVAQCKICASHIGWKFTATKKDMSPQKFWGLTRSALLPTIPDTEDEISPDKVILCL
CRBN-DDB1, sequence (Q16531 whole entry partner): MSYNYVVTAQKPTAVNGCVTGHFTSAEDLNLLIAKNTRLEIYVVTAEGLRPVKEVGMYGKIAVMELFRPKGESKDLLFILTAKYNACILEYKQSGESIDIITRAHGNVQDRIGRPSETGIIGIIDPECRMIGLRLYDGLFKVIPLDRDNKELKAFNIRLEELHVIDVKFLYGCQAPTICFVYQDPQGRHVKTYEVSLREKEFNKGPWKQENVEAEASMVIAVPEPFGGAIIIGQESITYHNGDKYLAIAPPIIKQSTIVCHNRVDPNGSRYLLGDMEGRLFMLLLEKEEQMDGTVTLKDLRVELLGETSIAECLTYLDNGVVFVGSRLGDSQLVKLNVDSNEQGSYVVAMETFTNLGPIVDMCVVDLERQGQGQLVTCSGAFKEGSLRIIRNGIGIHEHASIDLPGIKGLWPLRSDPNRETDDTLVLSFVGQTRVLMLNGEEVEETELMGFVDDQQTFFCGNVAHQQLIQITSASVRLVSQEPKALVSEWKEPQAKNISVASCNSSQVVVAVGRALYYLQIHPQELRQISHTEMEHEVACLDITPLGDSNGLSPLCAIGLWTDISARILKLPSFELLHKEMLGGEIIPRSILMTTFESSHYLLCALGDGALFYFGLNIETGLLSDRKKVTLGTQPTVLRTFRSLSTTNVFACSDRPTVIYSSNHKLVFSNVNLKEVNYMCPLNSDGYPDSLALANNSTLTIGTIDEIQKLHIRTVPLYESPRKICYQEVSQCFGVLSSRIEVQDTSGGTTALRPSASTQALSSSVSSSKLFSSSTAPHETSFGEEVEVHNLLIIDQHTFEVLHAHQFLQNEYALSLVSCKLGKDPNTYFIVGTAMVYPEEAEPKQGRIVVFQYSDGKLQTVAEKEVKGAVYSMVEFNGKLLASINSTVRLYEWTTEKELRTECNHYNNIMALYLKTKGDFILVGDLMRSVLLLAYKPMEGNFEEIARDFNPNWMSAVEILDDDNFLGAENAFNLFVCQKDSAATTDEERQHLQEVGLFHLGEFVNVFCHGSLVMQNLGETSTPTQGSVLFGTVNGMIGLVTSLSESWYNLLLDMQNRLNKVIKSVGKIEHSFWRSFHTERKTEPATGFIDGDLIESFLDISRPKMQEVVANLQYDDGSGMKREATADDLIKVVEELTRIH

For `Cc1sc2c(c1C)C(c1ccc(Cl)cc1)=N[C@@H](CC(=O)NCCCCCCCC(=O)Nc1ccc3c(C4CCC(=O)NC4=O)nn(C)c3c1)c1nnc(C)n1-2` (stereo partly drawn) [Degronimer 1, 8-(2-((S)-4-(4-chlorophenyl)-2,3,9-trimethyl-6H-thieno[3,2-f][1,2,4]triazolo[4,3-a][1,4]diazepin-6-yl)acetamido)-N-(3-(2,6-dioxopiperidin-3-yl)-1-methyl-1H-indazol-6-yl)octanamide], the Emax (MOLT4.1 (WT) cell line) was 0 to 50%, the GI50 (MOLT4.1 (WT) cell line) was 100 to 1000 nM and the “LD50 (nM)” value (MOLT4.1 (WT) cell line) was “+ (>1 μM = +)”. For the same compound, the DC50 (BRD4 BD1) was > 830 nM, the Emax [1] was > 50% and the GI50 [1] was > 1000 nM. The “LD50 (nM)” value [1] was “+ (>1 μM = +)” and the Kd (CRBN-DDB1) was < 10000 nM.
